The values that follow come from US10647713B2 (Nimbus Lakshmi, Inc., priority 2016, dated 2020).

Sequence of human TYK2 (JH2domain-pseudokinase) (P29597 556-888): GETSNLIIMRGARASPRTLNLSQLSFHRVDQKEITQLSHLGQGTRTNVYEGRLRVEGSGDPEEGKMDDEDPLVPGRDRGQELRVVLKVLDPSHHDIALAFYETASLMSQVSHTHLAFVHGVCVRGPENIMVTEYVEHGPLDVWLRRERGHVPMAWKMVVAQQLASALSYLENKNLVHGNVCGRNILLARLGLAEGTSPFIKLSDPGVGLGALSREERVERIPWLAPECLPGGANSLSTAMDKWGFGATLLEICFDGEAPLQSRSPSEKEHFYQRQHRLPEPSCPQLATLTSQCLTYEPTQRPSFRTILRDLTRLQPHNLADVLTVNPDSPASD

The target of the assay is human TYK2 (JH2domain-pseudokinase) (Homo sapiens (Human), UniProt P29597). Put plainly: TYK2 JH2 Domain Binding Assay (KINOMEscan, DiscoveRx). As to conditions: 11-point dilution, duplicate. An outline of the steps:
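TYK2 JH2 (G556–D888)–NFkB DBD fusion, DNA-tagged, from HEK293 extracts (<0.1 nM) competed against immobilised biotinylated ligand for 1 h at room temperature, 0.9% DMSO. Bead-retained kinase quantified by qPCR; Kd from 11-point 3-fold series (top 30,000 nM, duplicate), Hill fit with slope −1.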
Turning to `Cc1nc2c(Nc3ccc(C4CCC4)cc3S(C)(=O)=O)cc(NC(=O)C3CC3(F)F)nc2[nH]1` (centres unmarked) [I-361, N-(7-((4-cyclobutyl-2-(methylsulfonyl)phenyl)amino)-2-methyl-3H-imidazo[4,5-b]pyridin-5-yl)-2,2-difluorocyclopropane-1-carboxamide], the Kd (commonly the equilibrium constant for the complex coming apart) fell in the range of 1 to 10 nM.

In turn, `CN=S(C)(=O)c1ccccc1Nc1cc(NC(=O)C2CC2)nc2[nH]c(C(F)F)nc12` (centres unmarked) [I-362] returned a Kd of 0.1 to 0.5 nM.

Compound `Cc1nc2c(Nc3ccc(-c4nn(C)cc4C)cc3S(C)(=O)=O)cc(NC(=O)C3CC3(C)C)nc2[nH]1` (centres unmarked) [I-363, N-(7-((4-(1,4-dimethyl-1H-pyrazol-3-yl)-2-(methylsulfonyl)phenyl)amino)-2-methyl-3H-imidazo[4,5-b]pyridin-5-yl)-2,2-dimethylcyclopropane-1-carboxamide] came in with a Kd of 1 to 10 nM.

`Cc1cn(C)nc1-c1ccc(Nc2cc(NC(=O)C3CC3(C)C)nc3[nH]c(C(F)F)nc23)c(S(C)(=O)=O)c1` (centres unmarked) [I-364, N-(2-(difluoromethyl)-7-((4-(1,4-dimethyl-1H-pyrazol-3-yl)-2-(methylsulfonyl)phenyl)amino)-3H-imidazo[4,5-b]pyridin-5-yl)-2,2-dimethylcyclopropane-1-carboxamide]: the Kd was 1 to 10 nM.

`CS(=O)(=O)c1cc(C2CCCCO2)ccc1Nc1cc(Nc2cccc(C(F)(F)F)n2)nc2[nH]c(C(F)F)nc12` (centres unmarked) [I-365, 2-(difluoromethyl)-N7-(2-(methylsulfonyl)-4-(tetrahydro-2H-pyran-2-yl)phenyl)-N5-(6-(trifluoromethyl)pyridin-2-yl)-3H-imidazo[4,5-b]pyridine-5,7-diamine]: the Kd was in the range of 0.5 to 1 nM.

`Cc1cc(Nc2cc(Nc3ccc(C4CCCCO4)cc3S(C)(=O)=O)c3nc(C(F)F)[nH]c3n2)nc(C)n1` (centres unmarked) [I-366, 2-(difluoromethyl)-N5-(2,6-dimethylpyrimidin-4-yl)-N7-(2-(methylsulfonyl)-4-(tetrahydro-2H-pyran-2-yl)phenyl)-3H-imidazo[4,5-b]pyridine-5,7-diamine] had a Kd below 0.1 nM.

Compound `Cc1cc(Nc2cc(Nc3ccc(C4CCCCO4)cc3S(C)(=O)=O)c3nc(C)[nH]c3n2)nc(C)n1` (centres unmarked) [I-367, N5-(2,6-dimethylpyrimidin-4-yl)-2-methyl-N7-(2-(methylsulfonyl)-4-(tetrahydro-2H-pyran-2-yl)phenyl)-3H-imidazo[4,5-b]pyridine-5,7-diamine] came in with a Kd below 0.1 nM.

The compound `CN(c1cc(C2CCCCO2)ccc1Nc1cc(NC(=O)C2CC2)nc2[nH]c(C(F)F)nc12)S(C)(=O)=O` (centres unmarked) [I-369, N-(2-(difluoromethyl)-7-((2-(N-methylmethylsulfonamido)-4-(tetrahydro-2H-pyran-2-yl)phenyl)amino)-3H-imidazo[4,5-b]pyridin-5-yl)cyclopropanecarboxamide] registered a Kd of 0.1 to 0.5 nM.

`CN(c1cc(-c2cncn2C)ccc1Nc1cc(NC(=O)[C@H]2C[C@@H]2F)nc2[nH]c(C(F)F)nc12)S(C)(=O)=O` [I-370, (1R,2S)—N-(2-(difluoromethyl)-7-((4-(1-methyl-1H-imidazol-5-yl)-2-(N-methylmethylsulfonamido)phenyl)amino)-3H-imidazo[4,5-b]pyridin-5-yl)-2-fluorocyclopropane-1-carboxamide]: the Kd lay in the range of 0.1 to 0.5 nM.

`Cn1ccc(-c2ccc(Nc3cc(NC(=O)[C@H]4C[C@@H]4F)nc4[nH]c(C(F)F)nc34)c(S(C)(=O)=O)c2)n1` [I-371, (1R,2S)—N-(2-(difluoromethyl)-7-((4-(1-methyl-1H-pyrazol-3-yl)-2-(methylsulfonyl)phenyl)amino)-3H-imidazo[4,5-b]pyridin-5-yl)-2-fluorocyclopropane-1-carboxamide] showed a Kd of 0.1 to 0.5 nM.

For the compound `Cc1nc2c(Nc3ccc(-c4cnn(C)c4)cc3N(C)S(C)(=O)=O)cc(NC(=O)[C@H]3C[C@@H]3F)nc2[nH]1` [I-372, (1R,2S)-2-fluoro-N-(2-methyl-7-((4-(1-methyl-1H-pyrazol-4-yl)-2-(N-methylmethylsulfonamido)phenyl)amino)-3H-imidazo[4,5-b]pyridin-5-yl)cyclopropane-1-carboxamide], the Kd lay within 0.5 to 1 nM.
